Measured values: article PMC7395068, “The evolution of strategies to minimise the risk of human drug-induced liver injury (DILI) in drug discovery and development” (Archives of Toxicology, 2020)
Like-named read-outs stand apart in the source and are kept apart here.

Tests used:
human hepatocytes = conditions: cited from earlier work
[1] = tested on: isolated mouse liver mitochondria; conditions: In vitro Assay; ref Porceddu 2012; cited from earlier work
PHH spheroids = conditions: cited from earlier work; for hLiMTs ATP <20 x Cmax: In vitro Assay, ref Vorrink 2018
hLiMTs [2] = assay: Combined HCI (HCS) and cellular ATP 3D assay in hLiMTs; conditions: for AC50 / minimal effective concentration: Homo sapiens; for DILI prediction hLiMTs (HCS-MEC): Microtissue model structural based (HCI), combined HCS and ATP, MEC < 25 × Cmax.tot cut-off; for hLiMTs <25x Avg Cmax ATP / hLiMTs <25x Avg Cmax HCS / hLiMTs <25x Avg Cmax All: cut-off <25x Avg Cmax; for hLiMTs <25x Avg Cmax All: all endpoints (ATP and HCS); for hLiMTs Cmax max All: Cmax max used; for hLiMTs Cmax min All: Cmax min used
[3] = Plasma free fraction (fu) and unbound Cmax (Cmax,u); assay type: in vitro ADME, human; conditions: unbound plasma Cmax
Procedure: The prediction of DILI severity was evaluated further using the 3D combined HCI assays using plasma-free fraction. The majority of fu values were obtained from literature, when unavailable in-house prediction was utilised. Unbound plasma Cmax concentrations (Cmax,u) were derived by multiplying total plasma Cmax with the corresponding free fraction (fu) for each compound.

[4] = tested on: HepG2 cells, primary human hepatocytes; conditions: In vitro Assay; ref Garside 2014; cited from earlier work
[5] = tested on: THLE-Null and THLE-3A4 cells; conditions: In vitro Assay; ref Gustafsson 2014; cited from earlier work
[6] = tested on: HepG2 C3A spheroid, BSEP, Glu/Gal in HepG2 cells, bioactivation; conditions: cited from earlier work; for Bayesian Machine Learning DILI prediction, Williams (2019): Bayesian modeling, ref Williams et al. 2019; for Bayesian Machine Learning: In vitro Assay, ref Williams 2019
HepaRG spheroids = assay: Combined HCI (HCS) and cellular ATP 3D assay in HepaRG spheroids; conditions: for HepaRG <25x Avg Cmax ATP / HepaRG <25x Avg Cmax HCS / HepaRG <25x Avg Cmax All: cut-off <25x Avg Cmax; for HepaRG <25x Avg Cmax All: all endpoints (ATP and HCS); for HepaRG Cmax max All: Cmax max used; for HepaRG Cmax min All: Cmax min used; for AC50 / minimal effective concentration: Homo sapiens; for DILI prediction HepaRG spheroids (HCS-MEC): Microtissue model structural based (HCI), combined HCS and ATP, MEC < 25 × Cmax.tot cut-off
[7] = read-out: Human plasma Cmax; total plasma Cmax.tot, median of 9 literature references; cited from earlier work
[8] = plasma free fraction; cited from earlier work
HepG2 cells [9] = conditions: cited from earlier work
[10] = cited from earlier work
PHH = conditions: cited from earlier work
rBsep = conditions: In vitro Assay; ref Dawson 2012; cited from earlier work
hLiMTs [11] = conditions: cited from earlier work
HepG2 cells [12] = conditions: cited from earlier work; remark: listed apart in the source
[13] = In vitro Assay, ref Proctor 2017
[14] = In vitro Assay, ref Persson 2013

## COc1ccc2c(c1)c(CC(=O)O)c(C)n2C(=O)c1ccc(Cl)cc1 [indomethacin]
Human hepatocytes; In vitro Assay, ref Xu 2008
  Structural based (HCI): -VE
Human hepatocytes; Structural based (HCI), human hepatocytes, ref Xu et al. 2008
  DILI in vitro assay prediction, Xu (2008): -VE
[1]
  in vitro data EC2<=1x Cmax: +VE
PHH spheroids
  hLiMTs ATP <20 x Cmax: +VE (IC20 < 20 × Cmax.tot cut-off)
hLiMTs [2]; read-out: ATP endpoint AC50
  AC50: 9.29 µM
hLiMTs [2]; read-out: ATP endpoint MEC
  minimal effective concentration: 4.54 µM
hLiMTs [2]; read-out: HCS endpoint AC50
  AC50: 672 µM
hLiMTs [2]; read-out: HCS endpoint MEC
  minimal effective concentration: 95.2 µM
hLiMTs [2]
  DILI prediction hLiMTs (HCS-MEC): +VE (MEC < 25 × Cmax.tot cut-off)
hLiMTs [2]; hLiMTs, ATP endpoint
  hLiMTs <25x Avg Cmax ATP: +ve
hLiMTs [2]; hLiMTs, HCS endpoints
  hLiMTs <25x Avg Cmax HCS: +ve
hLiMTs [2]; hLiMTs
  hLiMTs <25x Avg Cmax All: +ve
hLiMTs [2]; hLiMTs, all endpoints
  hLiMTs Cmax max All: +ve
  hLiMTs Cmax min All: +ve
[3]
  Human plasma Cmax,u: 84 nM
[4]
  Cluster 1-6 +VE Assay: -VE
[5]
  THLE-Null: -VE
[6]
  Bayesian Machine Learning DILI prediction, Williams (2019): +VE
  Bayesian Machine Learning: +VE
HepaRG spheroids; HepaRG, ATP endpoint
  HepaRG <25x Avg Cmax ATP: +ve
HepaRG spheroids; HepaRG, HCS endpoints
  HepaRG <25x Avg Cmax HCS: +ve
HepaRG spheroids; HepaRG
  HepaRG <25x Avg Cmax All: +ve
HepaRG spheroids; HepaRG, all endpoints
  HepaRG Cmax max All: +ve
  HepaRG Cmax min All: +ve
HepaRG spheroids; HepaRG, read-out: ATP endpoint AC50
  AC50: 94.2 µM
HepaRG spheroids; HepaRG, read-out: ATP endpoint MEC
  minimal effective concentration: 79.2 µM
HepaRG spheroids; HepaRG, read-out: HCS endpoint AC50
  AC50: 215 µM
HepaRG spheroids; HepaRG, read-out: HCS endpoint MEC
  minimal effective concentration: 23.8 µM
HepaRG spheroids
  DILI prediction HepaRG spheroids (HCS-MEC): +VE (MEC < 25 × Cmax.tot cut-off)
[7]
  Cmax: 8380 nM
[8]
  fu: 0.010

## C#CCN(C)Cc1ccccc1 [pargyline]
HepG2 cells [9]; In vitro Assay, ref O'Brien 2006
  Structural based (HCI): -VE
HepG2 cells [9]; Structural based (HCI), HepG2, ref O'Brien et al. 2006
  DILI in vitro assay prediction, O'Brien (2006): -VE
[1]
  in vitro data EC2<=1x Cmax: -VE
  in vitro data EC20<=2uM: -VE
[10]; Chen et al. 2016 or literature alignment, ref Chen et al. 2016
  Assigned DILI category: 1
[10]; ref Dawson 2012
  In vivo DILI: -VE
[10]; ref Garside 2014
  In vivo DILI: -VE
[10]; ref Gustafsson 2014
  In vivo DILI: -VE
[10]; ref O'Brien 2006
  In vivo DILI: -VE
[10]; ref Persson 2013
  In vivo DILI: -VE
[10]; ref Porceddu 2012
  In vivo DILI: -VE
[10]; ref Proctor 2017
  In vivo DILI: -VE
[10]; ref Vorrink 2018
  In vivo DILI: -VE
[10]; ref Williams 2019
  In vivo DILI: -VE
PHH spheroids
  hLiMTs ATP <20 x Cmax: -VE
PHH spheroids; PHH spheroids, ATP, 14 days, IC20 < 20 × Cmax.tot, ref Vorrink et al. 2018
  DILI in vitro assay prediction, Vorrink (2018): -VE
hLiMTs [2]
  DILI prediction hLiMTs (HCS-MEC): -VE
hLiMTs [2]; hLiMTs, ATP endpoint
  hLiMTs <25x Avg Cmax ATP: -ve
hLiMTs [2]; hLiMTs, ATP endpoint, cut-off <100x Avg Cmaxu
  hLiMTs <100x Avg Cmaxu ATP: -ve
hLiMTs [2]; hLiMTs, HCS endpoints
  hLiMTs <25x Avg Cmax HCS: -ve
hLiMTs [2]; hLiMTs, HCS endpoints, cut-off <100x Avg Cmaxu
  hLiMTs <100x Avg Cmaxu HCS: -ve
hLiMTs [2]; hLiMTs
  hLiMTs <25x Avg Cmax All: -ve
hLiMTs [2]; hLiMTs, all endpoints
  hLiMTs Cmax max All: -ve
  hLiMTs Cmax min All: -ve
hLiMTs [2]; hLiMTs, all endpoints, cut-off <10 uM
  hLiMTs <10 uM All: -ve
hLiMTs [2]; hLiMTs, all endpoints, cut-off <100x Avg Cmaxu
  hLiMTs <100x Avg Cmaxu All: -ve
[3]
  Human plasma Cmax,u: 237 nM
[4]
  Cluster 1-6 +VE Assay: +VE
[5]
  THLE-Null: -VE
  THLE-Null/3A4: -VE
PHH; 2D PHH, ATP, IC50 < 100 × Cmax.tot, ref Proctor et al. 2017
  PHH/100xCmax, Proctor (2017): -VE
PHH; 2D PHH, ATP, IC50 threshold 100 µM, ref Proctor et al. 2017
  PHH/100uM, Proctor (2017): -VE
PHH; [13]
  PHH ATP <100uM: -VE
[6]
  Bayesian Machine Learning DILI prediction, Williams (2019): -VE
  Bayesian Machine Learning: -VE
rBsep
  Inhibition of rBsep cutoff<1& cmax u>.2: -VE
  Inhibition of rBsep cutoff<3: -VE
HepaRG spheroids; HepaRG, ATP endpoint
  HepaRG <25x Avg Cmax ATP: -ve
HepaRG spheroids; HepaRG, ATP endpoint, cut-off <100x Avg Cmaxu
  HepaRG <100x Avg Cmaxu ATP: -ve
HepaRG spheroids; HepaRG, HCS endpoints
  HepaRG <25x Avg Cmax HCS: -ve
HepaRG spheroids; HepaRG, HCS endpoints, cut-off <100x Avg Cmaxu
  HepaRG <100x Avg Cmaxu HCS: -ve
HepaRG spheroids; HepaRG
  HepaRG <25x Avg Cmax All: -ve
HepaRG spheroids; HepaRG, all endpoints
  HepaRG Cmax max All: -ve
  HepaRG Cmax min All: -ve
HepaRG spheroids; HepaRG, all endpoints, cut-off <10 uM
  HepaRG <10 uM All: -ve
HepaRG spheroids; HepaRG, all endpoints, cut-off <100x Avg Cmaxu
  HepaRG <100x Avg Cmaxu All: -ve
HepaRG spheroids
  DILI prediction HepaRG spheroids (HCS-MEC): -VE
hLiMTs [11]; [13]
  hLiMTs ATP <100uM: -VE
hLiMTs [11]; hLiMTs, ATP, IC50 < 100 × Cmax.tot, ref Proctor et al. 2017
  hLiMTs/100xCmax, Proctor (2017): -VE
hLiMTs [11]; hLiMTs, ATP, IC50 threshold 100 µM, ref Proctor et al. 2017
  hLiMTs/100uM, Proctor (2017): -VE
[7]
  Cmax: 819 nM
HepG2 cells [12]; [14]
  Cluser analysis: -VE
  Structural based (HCI): -VE
HepG2 cells [12]; Structural based (HCI), HepG2, ref Persson et al. 2013
  DILI in vitro assay prediction, Persson (2013): -VE
[8]
  fu: 0.290
